This is an account of results in patent publication US20240100068A1, “METHODS COMPRISING ADMINISTRATION OF A GLUCOCORTICOID RECEPTOR AGONIST AND AN INHIBITOR OF CALCINEURIN” (Chengdu Anticancer Bioscience, Ltd., priority 2022, published 2024).

The subject of assay [1] is T2MycNick cells. Nature of the assay: Testing compounds for their ability of restoring contact inhibition (vacuolation, cell density). It is filed as cell-based, murine. The following applies: for minimal effective concentration: T2MycNick cells grown beyond confluence, 7-14 days; for diameters of large vacuoles: cells that overgrew beyond confluence; for contact inhibition restoration (CIR) activity: high-density cells.

For assay [2], the system named is T2MycNick cells. Nature of the assay: Proliferation and viability of cells cultured under sub-confluence. The class given is cell-based, murine. The conditions noted are these: for effect on proliferation and viability: cells grown at sub-confluence. As for the experimental part:
(§1) FIG. 1A is a graph showing that DEX has no effect on the viability of murine liver cancer cell lines cultured under sub-confluence. The isogenic murine liver cancer cell lines T2Puro and T2MycNick were passaged and exposed to vehicle or 2 μM of DEX at a confluence of 10%. The cell viability was assayed with Trypan blue exclusion assays at day 3.
FIG. 1C is a graph showing DEX has no effect on the proliferation of murine liver cancer cell lines cultured under sub-confluence the live cell number was calculated daily with an automatic Luna cell counter and relative cell number was shown for T2MycNick.
Exponentially growing murine cells expressing Myc-Nick (T2MycNick cells) were passaged into 24-well plates at a final confluence of 20% and were allowed to attach overnight before being exposed to a test compound at a concentration of 10 μM. T2MycNick cells were generated by expressing the Myc-nick, the N-terminal of the Myc protein, in the T2 cell line, which was, in turn, derived from a MYC-driven mouse liver cancer (Shachaf et al., Nature 2004 Oct. 28; 431(7012):1112-7). The cells were subjected to daily analysis of viability and morphology under an inverted tissue culture microscope or GE InCell Analyzer 2000. Cell density was documented after staining of DNA with PI 7-10 days after the initiation of treatment.

Assay [3] concerns T2Puro. The description is as above. It is filed as cell-based, murine. As for the experimental part: as §1
FIG. 1B is a graph showing DEX has no effect on the proliferation of murine liver cancer cell lines cultured under sub-confluence. The live cell number was calculated daily with an automatic Luna cell counter and relative cell number was shown for T2Puro.

For assay [4], the system named is MycNick cells. Nature of the assay: Soft agar colony formation assay (anchorage-independent growth). The class given is cell-based, murine. The following applies: FIG. 9: 2 μM of DEX or 5 μM of HC, up to 22 days. As for the experimental part: FIG. 9. are images (left) and graphs (right) showing both Hydrocortisone and Dexamethasone suppress the anchorage-independent growth of T2MycNick cells. The T2MycNick cells were mixed with 0.35% soft agar and transferred to 24-well microplates 24 hours before exposed to vehicle, 2 μM of DEX or 5 μM of HC. Images were acquired with an inverted tissue culture microscope at 1, 9 and 22 days after initiation of drug treatment. The sizes of spheroids were quantified with Image J (right).
The soft agar colony formation assay was performed in 6-well plates with two layers of agar. For the first, 0.75% agar in DMEM medium was melted in a microwave oven and poured to form a bottom layer. Once solidified, 10-100K cells in 1 ml of DMEM containing 0.35% agar was added to form the top layer, which was later covered with 0.5 ml of DMEM. Cell culture medium was changed once every two days until colonies were ready to photograph. The antitumor activity of Hydrocortisone and Dexamethasone was tested in soft agar assays. […] The suppression of growth of the cell line in 3D culture is consistent with the suppressive impact of these compounds on cell density when cells were allowed to grow beyond confluence.

Assay [5] relates to murine lung cancer cell line TA2280. Nature of the assay: Final cell density and vacuolation in lung cancer cell line TA2280. The class given is cell-based. The following applies: for final cell density: 2 weeks. From the text:
FIG. 5A. are images showing Hydrocortisone and Dexamethasone reduce the final cell density in a murine lung cancer cell line TA2280. The cells were exposed to vehicle or the indicated concentrations of either Hydrocortisone or Dexamethasone for 2 weeks. The cells were then fixed and stained with PI for nuclei to reveal the cell density.

In assay [6] the test system is human lung cancer cell line A549. Nature of the assay: Final cell density and vacuolation in lung cancer cell line A549. It is filed as cell-based. The following applies: for final cell density: 2 weeks. As for the experimental part:
(§2) FIG. 5B are graphs and images showing Hydrocortisone and Dexamethasone reduce the final cell density in a lung cancer cell line A549 and a breast cancer cell line MDA-MB-231). The cells were exposed to vehicle or the indicated concentrations of either Hydrocortisone or Dexamethasone for 2 weeks. The cells were then either numerated with a Luna cell counter or fixed and stained with PI for nuclei to reveal the cell density.
Cells were treated for 10 days with Hydrocortisone and a Calcineurin inhibitor either individually or in combination and then stained with PI for DNA before imaged with an EVOS FL auto microscope.

Assay [7] has as its system breast cancer cell line MDA-MB-231. Nature of the assay: Final cell density and vacuolation in breast cancer cell line MDA-MB-231. The conditions noted are these: for final cell density: 2 weeks. It is filed as cell-based.
From the text: as §2

Assay [8] concerns T2Puro. Nature of the assay: Restoration of contact inhibition and induction of vacuolation in control cell line. It is filed as cell-based, murine. The conditions noted are these: FIG. 6A: 7 days, 2 μM of DEX. The protocol: (§3) The indicated cell isogenic cell lines were exposed for 7 days to 2 μM of DEX. The cells were then imaged under an inverted tissue culture microscope (top left) or an EVOS FL Auto microscope after staining with Acridine Orange (bottom left). The area occupied by drug-induced vacuoles was quantified with Image J and data (bottom right). At the endpoint, the cells were also numerated with a Luna cell counter and relative cell number is shown (top right).

In the next assay the test system is T2Bc1-xL cells. Nature of the assay: Restoration of contact inhibition and induction of vacuolation in Bc1-xL expressing cells. The conditions noted are these: FIG. 6A: 7 days, 2 μM of DEX. The class given is cell-based, murine. As for the experimental part: as §3
Assay [9] relates to T2MycNick cells. Nature of the assay: IF analysis of cell-cell junctions (ZO-1, β-catenin) in monolayer zones. The following applies: 7 days. It is filed as cell-based, murine. As for the experimental part: FIG. 14A. Are images (left) and graphs (right) showing relocation of β-catenin to the cell-cell junctions in monolayer zones. The murine liver cancer cell line T2MycNick was treated with the indicated concentration of Hydrocortisone or Dexamethasone for 7 days before fixed for IF analysis of β-catenin. DNA was stained with DAPI. Images were acquired with an EVOS FL auto microscope. The relative signal density alone the line in each subpanel was quantified with Image J.
FIG. 14B. Are images (left) and graphs (right) showing relocation of ZO-1 to the cell-cell junctions in monolayer zones. […] The relative signal density alone the line in each subpanel was quantified with Image J. […]
The following are primary antibodies used in this study. […] Primary antibodies were detected with Rhodamine (TRITC)-conjugated AffiniPure Donkey Anti-Rabbit IgG (H+L) (Cat. # 711-025-152), Fluorescein(FITC)-conjugated Affinipure Goat Anti-Rabbit IgG (H+L) (Cat.#111-095-003), Alexa Fluor488 Affinipure Goat Anti-Mouse IgG (H+L) (Cat. #115-545-003 from Jackson ImmunoResearch at 1:500 dilution. After immunostaining, cells were mounted on microscope slides with 4′,6′-diamidino-2-phenylindole (DAPI)-containing Vectashield mounting solution (Vector Laboratories, Cat. # H1500). For fluorescence detection, an EVOS FL Auto microscope (Thermo Fisher) was used.

For assay [10], the system named is MycNick cells. Nature of the assay: MTT assay for cellular proliferation. The following applies: confluence of 20-30%, 1 nM to 5 μM. It is filed as cell-based, murine.

Entries after “also recorded” stand apart in the source; their conditions may differ. Where two headings read alike, the source gives them in different places.

As to `C[C@@H]1C[C@H]2[C@@H]3CCC4=CC(=O)C=C[C@]4(C)[C@@]3(F)[C@@H](O)C[C@]2(C)[C@@]1(O)C(=O)CO` [HC002, Dexamethasone], the minimal effective concentration stood at 0.125 µM in the assay on T2MycNick cells [1] (PI staining, read-out: Conc that reduces > 50% in the cell density) and 0.125 µM with T2MycNick cells [1] (vacuolation covering no less than 10% of a random field, read-out: Min. effective conc. that elicits vacuolation). Moreover, the “diameters of large vacuoles” value in the assay on T2MycNick cells [1] is given as “about 20 μm”. Further, the “contact inhibition restoration (CIR) activity” value with T2MycNick cells [1] is on record as “restored contact inhibition”. Also, the “viability (Trypan blue exclusion)” value was “no effect” in the assay with T2MycNick cells [2] (2 μM, confluence of 10%, day 3) and “no effect” in the assay with T2Puro [3] (2 μM, confluence of 10%, day 3). For the same compound, the “effect on proliferation and viability” value in the assay with T2MycNick cells [2] is reported as “no detectable effect”. In addition, the “proliferation (relative live cell number)” value is recorded as “no effect” with T2MycNick cells [2] (sub-confluence, counted daily) and “no effect” in the assay on T2Puro [3] (sub-confluence, counted daily). The anchorage-independent growth result in the assay with MycNick cells [4] is “effectively suppressed; also recorded: suppress”. Further, the vacuolation entry in assay [5], in assay [6] and in assay [7] was “induction of vacuolation” each time. For the same compound, the final cell density entry in assay [5], in [6] and in assay [7] was “Reduction of final cell density” each time. Further, the “response (contact inhibition, vacuolation)” value in the assay with T2Puro [8] is “did not respond”. Besides, the “sensitivity (contact inhibition, vacuolation)” value with T2Bc1-xL cells is listed as “did not confer sensitivity”. The “cell-cell junctions in monolayer zones” value with T2MycNick cells [9] is on record as “restored”.

On to `C[C@]12CCC(=O)C=C1CC[C@@H]1[C@@H]2[C@@H](O)C[C@@]2(C)[C@H]1CC[C@]2(O)C(=O)CO` [HC001, Hydrocortisone], for which the minimal effective concentration amounted to 0.156 µM in the assay with T2MycNick cells [1] (Mus musculus, PI staining, read-out: Conc that reduces > 50% in the cell density) and 0.156 µM in the assay on T2MycNick cells [1] (Mus musculus, vacuolation covering no less than 10% of a random field, read-out: Min. effective conc. that elicits vacuolation). Besides, the “diameters of large vacuoles” value with T2MycNick cells [1] was “about 20 μm”. Besides, the “contact inhibition restoration (CIR) activity” value with T2MycNick cells [1] is “restored contact inhibition”. In addition, the “cellular proliferation and viability” value with T2MycNick cells [2] (5 μM, grown in sub-confluence) was “did not affect”. Moreover, in the assay on T2MycNick cells [2], the “effect on proliferation and viability” value is “no detectable effect”. In the assay on MycNick cells [10], the “proliferation (MTT)” value was “neither Hydrocortisone nor Cyclosporin A affected the proliferation”. For the same compound, in the assay with MycNick cells [4], the anchorage-independent growth entry was “effectively suppressed; also recorded: suppress”. Also, the vacuolation result in assay [5], in [6] and in [7] was “induction of vacuolation” in each case. For the same compound, the final cell density entry in assay [5], in assay [6] and in [7] was “Reduction of final cell density” each time. Further, the “response (contact inhibition, vacuolation)” value with T2Puro [8] was “did not respond”. In the assay on T2Bc1-xL cells, the “sensitivity (contact inhibition, vacuolation)” value was “did not confer sensitivity”. Further, the “cell-cell junctions in monolayer zones” value in the assay on T2MycNick cells [9] is given as “restored”.
